Laboratory results reported in publication PMC9413995, “Synthesis and Assessment of the In Vitro and Ex Vivo Activity of Salicylate Synthase (Mbti) Inhibitors as New Candidates for the Treatment of Mycobacterial Infections” (Pharmaceuticals, 2022).
Values after ≈ are worked out from the molar mass of the structure shown. Values joined by “and” are separate entries in the source; they are usually repeats but may differ in a detail not shown here. Equal values may be shown once. “Also recorded” adds a separate entry of the source. Read-outs that look alike come from different tables or passages of the source.

Columns and labels:
[1] = molecular target: T1, Recombinant M. tuberculosis MbtI (Mycobacterium tuberculosis, UniProt P9WFX1); assay: MbtI enzymatic assay (fluorimetric); assay type: biochemical; settings: for IC50: MbtI activity, calculated for compounds showing %RA < 20; for % RA (percentage of residual enzymatic activity) / remaining activity at 100 µM: compound at 100 μM, 50 µM chorismic acid; for remaining activity at 100 µM: read-out: % RA (percentage of residual enzymatic activity)
T1 construct: made in house
T1 sequence (P9WFX1 whole entry): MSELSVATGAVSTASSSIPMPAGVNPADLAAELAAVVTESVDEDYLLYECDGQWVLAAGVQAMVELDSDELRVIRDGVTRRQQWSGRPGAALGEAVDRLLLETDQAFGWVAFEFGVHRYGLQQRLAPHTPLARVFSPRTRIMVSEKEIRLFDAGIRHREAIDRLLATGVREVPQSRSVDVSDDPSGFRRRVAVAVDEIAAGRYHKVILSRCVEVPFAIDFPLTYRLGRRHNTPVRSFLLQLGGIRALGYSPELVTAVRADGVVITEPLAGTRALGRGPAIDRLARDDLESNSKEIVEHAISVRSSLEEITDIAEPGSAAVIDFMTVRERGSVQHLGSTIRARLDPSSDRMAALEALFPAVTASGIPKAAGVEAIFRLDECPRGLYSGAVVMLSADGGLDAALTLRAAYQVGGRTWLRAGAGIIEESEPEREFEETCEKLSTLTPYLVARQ
Experimental: Recombinant M. tuberculosis MbtI was produced and purified, and enzyme activity determined as previously reported. All the reactions were performed at 37 °C, in a final volume of 400 μL of 50 mM Hepes pH 7.5, 5 mM MgCl2, containing 1–2 μM MbtI, by the addition of chorismic acid, and monitored using a Perkin Elmer LS3 fluorimeter (Ex. λ = 305 nm, Em. λ = 420 nm). […] IC50 values were determined by measuring the activity at different concentrations of the compound, and using the following equation with GraphPad software:(1) A[I] =A[0] × 1−[I]/[I]+IC50
where A[I] is the activity at inhibitor concentration [I] and A[0] is the activity in the absence of the inhibitor.

M. bovis BCG [2] = assay: microbe, parasite or virus in culture; assay type: cell-based; settings: iron-limiting chelated Sauton's medium, REMA, 15 days
M. abscessus = assay: Infection assay of MPI-2-eGFP mAMs with M. abscessus tdTomato; assay type: cell-based
M. bovis BCG [3] = assay type: cell-based
[4] = tested on: platelet (PLT), red blood cells (RBC), and white blood cells (WBC); assay: Blood cell count in whole blood of healthy volunteers; assay type: cell-based, human; settings: 100 nM, 500 nM, 1 µM, up to 3 h, room temperature
Experimental: (§1) Whole blood (WB), drawn with a 19-gauge needle without venous stasis into sodium citrate (0.129M, 1/10 volume/volume)-containing tubes (Vacutainer, Becton Dickinson), discarding the first 4 mL, was incubated with 1f (100 nM, 500 nM, and 1000 nM) or with solvent (DMSO; final dilution: 0.01%) up to 3 h at room temperature. Untreated (NT) WB of each healthy volunteer was used as a comparison.
(§2) PLT, RBC, and WBC counts were assessed at 0, 15, 30, 45, 60, 120 min and 3 h after the addition of 1f or solvent using Sysmex XE-2100 Automated Hematology Analyzer. Data were reported as count ± SD of each cell population. To evaluate the effect of 1f on platelet activation, conventional platelet activation markers [P-selectin and activated glycoprotein IIbIIIa (aGPIIbIIIa)], as well as platelet-associated tissue factor (TF) expression, were analyzed by WB flow cytometry as previously described at 0, 30 and 60 min after the addition of the highest concentration of 1f or solvent. […] Microvesicle formation, another well-known activation marker, was also assessed by flow cytometry at each time point after the addition of different concentrations of 1f or solvent. Fluorochrome-conjugated isotype controls were used to quantify the background labeling. […]

platelets = assay: Platelet activation assessment by whole blood flow cytometry; assay type: cell-based, human
Experimental: as §1, §2

M. bovis BCG [5] = assay type: cell-based; remark: listed apart in the source
M. bovis BCG [6] = settings: previous lead; cited from earlier work
[7] = Mycobacterium tuberculosis variant bovis BCG, BCG, 360 h

## N#Cc1cc(Oc2ccccc2)cc(-c2ccc(C(=O)O)o2)c1 [1a, 5-(3-Cyano-5-phenoxyphenyl)furan-2-carboxylic acid]
[1]
  IC50: 23.1 ± 2.6 µM
  % RA (percentage of residual enzymatic activity): 14.0 ± 4.1%
  remaining activity at 100 µM: 14%
M. bovis BCG [2]; [7]
  MIC99: 125 µM (≈ 38.2 µg/mL)

## N#Cc1cc(OCc2ccccc2)cc(-c2ccc(C(=O)O)o2)c1 [1b, 5-(3-(Benzyloxy)-5-cyanophenyl)furan-2-carboxylic acid]
[1]
  IC50: 15.6 ± 1.2 µM
  remaining activity at 100 µM: 1.2 ± 0.4%
other
  melting point: 187 °C
M. bovis BCG [2]; [7]
  MIC99: 250 µM (≈ 79.8 µg/mL)

## N#Cc1cc(OCCc2ccccc2)cc(-c2ccc(C(=O)O)o2)c1 [1c, 5-(3-Cyano-5-phenethoxyphenyl)furan-2-carboxylic acid]
[1]
  IC50: ~3 µM and 3 µM
  remaining activity at 100 µM: 0.6 ± 0.5%
other
  melting point: 202 °C
M. bovis BCG [2]; [7]
  MIC99: 250 µM (≈ 83.3 µg/mL)

## N#Cc1cc(OCCCc2ccccc2)cc(-c2ccc(C(=O)O)o2)c1 [1d, 5-(3-Cyano-5-(3-phenylpropoxy)phenyl)furan-2-carboxylic acid]
[1]
  % RA (percentage of residual enzymatic activity): 25.6 ± 5.8%
  remaining activity at 100 µM: ~25%
other
  melting point: 186 °C

## N#Cc1cc(OC/C=C/c2ccccc2)cc(-c2ccc(C(=O)O)o2)c1 [1e, (E)-5-(3-(Cinnamyloxy)-5-cyanophenyl)furan-2-carboxylic acid]
[1]
  IC50: 13.5 ± 1 µM
  remaining activity at 100 µM: 11.5 ± 1.7%
other
  melting point: 170 °C
M. bovis BCG [2]; [7]
  MIC99: ~125 µM (≈ 43.2 µg/mL)
M. bovis BCG [2]
  MIC99: 125 µM (≈ 43.2 µg/mL)

## N#Cc1cc(OCCOc2ccccc2)cc(-c2ccc(C(=O)O)o2)c1 [1f, 5-(3-Cyano-5-(2-phenoxyethoxy)phenyl)furan-2-carboxylic acid]
M. abscessus; highest concentration tested (32 μM), plate reader
  Mab_tdTomato load 3-days p.t with respect to the prior time point: significantly reduced
M. abscessus; up to 32 μM, 2- and 3-days p.t
  intracellular Mab_tdTomato burden in infected cells (microscopy, image segmentation): did not display a decrease in the Mab_tdTomato burden
M. abscessus; up to 32 μM, 2- and 3-days p.t, plate reader
  Mab infection clearance / Mab_tdTomato load in infected MPI-2_eGFP: did not resolve Mab infection; also recorded: did not detect a significant efficacy in killing intracellular bacteria
[1]
  IC50: 12.1 ± 2 µM
  remaining activity at 100 µM: 5.5 ± 2.4%
M. bovis BCG [3]; CAS assay, M. bovis BCG in chelated Sauton's medium
  minimal concentration that prevented the production of siderophores: 32 µM
M. bovis BCG [3]; M. bovis BCG culture supernatants, 15 days
  relation of antimycobacterial activity to inhibition of iron uptake (Universal CAS assay): correlated to the inhibition of iron uptake; also recorded: positively related to the inhibition of iron uptake
[4]
  PLT, RBC, and WBC counts: like untreated (NT) and DMSO-treated whole blood; also recorded: does not affect blood cell count; also recorded: no cytotoxicity against human cells
M. bovis BCG [2]; [7]
  MIC99: 63 µM (≈ 22 µg/mL)
platelets; 1 µM (highest concentration), 0, 30, 60 min
  platelet activation markers: P-selectin, monocyte-platelet and granulocyte-platelet aggregates, aGPIIbIIIa: not affected
platelets; 1 µM, 0, 30, 60 min
  platelet-associated Tissue Factor expression, microvesicle formation: not influenced
M. bovis BCG [5]
  BCG_tdTomato fluorescence / eGFP in infected MPI-2_eGFP: did not detect a reduction in Tdtomato fluorescence nor an increase in eGFP; also recorded: did not detect a significant efficacy in killing intracellular bacteria

## N#Cc1cc(OCCNc2ccccc2)cc(-c2ccc(C(=O)O)o2)c1 [1g, 5-(3-Cyano-5-(2-(phenylamino)ethoxy)phenyl)furan-2-carboxylic acid]
[1]
  IC50: ~18 µM and 18 µM
  remaining activity at 100 µM: 9.3 ± 2.2%
M. bovis BCG [2]; [7]
  MIC99: 250 µM (≈ 87.1 µg/mL)

## N#Cc1cc(Oc2ccc3ccccc3c2)cc(-c2ccc(C(=O)O)o2)c1 [1h, 5-(3-Cyano-5-(naphthalen-2-yloxy)phenyl)furan-2-carboxylic acid]
[1]
  IC50: 16.3 ± 1.2 µM
  remaining activity at 100 µM: 12.7 ± 2%
other
  melting point: 226 °C
M. bovis BCG [2]; [7]
  MIC99: 125 µM (≈ 44.4 µg/mL)

## N#Cc1cc(Oc2ccc3cccnc3c2)cc(-c2ccc(C(=O)O)o2)c1 [1i, 5-(3-Cyano-5-(quinolin-7-yloxy)phenyl)furan-2-carboxylic acid]
[1]
  IC50: 16.6 ± 1 µM
  remaining activity at 100 µM: 13.9 ± 3.1%
other
  melting point: 263 °C (dec.)
M. bovis BCG [2]; [7]
  MIC99: 125 µM (≈ 44.5 µg/mL)

## N#Cc1cc(OCc2ccc3ccccc3c2)cc(-c2ccc(C(=O)O)o2)c1 [1j, 5-(3-Cyano-5-(naphthalen-2-ylmethoxy)phenyl)furan-2-carboxylic acid]
[1]
  IC50: 34.8 ± 2.5 µM
  remaining activity at 100 µM: 19.8 ± 6.5%
other
  melting point: 209 °C (dec.)
M. bovis BCG [2]; [7]
  MIC99: 250 µM (≈ 92.3 µg/mL)

## N#Cc1cccc(-c2ccc(C(=O)O)o2)c1 [I, 5-(3-cyanophenyl)furan-2-carboxylic acid]
M. bovis BCG [6]
  MIC99: 250 µM (≈ 53.3 µg/mL)
